Reference: ChEMBL document CHEMBL3045998, “QSAR analysis of 2-benzoxazolyl hydrazone derivatives for anticancer activity and its possible target prediction” (Med Chem Res, 2012)

What was measured:
Type in all cases: functional, cell-based
[1] = Cytotoxicity against Homo sapiens (human) Burkitt lymphoma cells assessed as growth inhibition
HeLa = assay: Cytotoxicity against Homo sapiens (human) HeLa cells assessed as growth inhibition
CCRF-CEM = assay: Cytotoxicity against Homo sapiens (human) CCRF-CEM cells assessed as growth inhibition

| Compound | IC50 ([1]; read-out: IC50) | IC50 ([1]; read-out: pIC50 (converted)) | IC50 (HeLa) | IC50 (CCRF-CEM) |
| --- | --- | --- | --- | --- |
| c1ccc(/C(=N/Nc2nc3ccccc3o2)C2CC2)nc1 | 185 nM | 186 nM | – | – |
| C/C(=N\Nc1nc2ccccc2o1)c1cccnc1 | > 100000 nM | – | – | – |
| CC/C(=N\Nc1nc2ccccc2o1)c1ccccn1 | 2 nM | 2 nM | 51.3 nM | – |
| C/C(=N\Nc1nc2ccccc2o1)c1ncccn1 | 30 nM | 30.2 nM | – | – |
| CCC/C(=N\Nc1nc2ccccc2o1)c1ccccn1 | 6 nM | 6.03 nM | – | – |
| c1ccc(/C(=N\Nc2nc3ccccc3o2)c2ccccn2)cc1 | 120 nM | 120 nM | – | – |
| C/C(=N\Nc1nc2ccccc2o1)c1cc(C)ncn1 | 42 nM | 41.7 nM | – | – |
| C/C(=N\Nc1nc2ccccc2o1)c1cccnn1 | 1300 nM | 1290 nM | – | – |
| C/C(=N\Nc1nc2ccccc2o1)c1ccccn1 | 9 nM | 8.91 nM | – | – |
| C/C(=N\Nc1nc2ccccc2o1)c1cc2ccccc2cn1 | 30 nM | 30.2 nM | – | – |
| C/C(=N\Nc1nc2ccccc2o1)c1ccc(C)nn1 | 6270 nM | 6310 nM | – | – |
| C/C(=N\Nc1nc2ccccc2o1)c1cccc[n+]1[O-] | 27 nM | 26.9 nM | – | – |
| c1ccc(C(=NNc2nc3ccccc3o2)c2ccccn2)nc1 | 12 nM | 12 nM | – | – |
| CC(C)(C)/C(=N\Nc1nc2ccccc2o1)c1ccccn1 | > 10000 nM | – | – | – |
| CC(C)/C(=N\Nc1nc2ccccc2o1)c1ccccn1 | 14 nM | 14.1 nM | – | – |
| C/C(=N\Nc1nc2ccccc2o1)c1nccnc1C | 900 nM | 891 nM | 186 nM | 129 nM |
| C/C(=N\Nc1nc2ccccc2o1)c1cnc(C)cn1 | 150 nM | 151 nM | – | – |
| C/C(=N\Nc1nc2ccccc2o1)c1ccncn1 | 144 nM | 145 nM | – | – |
| C/C(=N\Nc1nc2ccccc2o1)c1nccc2ccccc12 | 200 nM | 200 nM | – | – |
| C(=N\Nc1nc2ccccc2o1)/c1ccccn1 | 5 nM | 5.01 nM | – | – |
| C/C(=N\N(C)c1nc2ccccc2o1)c1ccccn1 | > 50000 nM | – | – | – |
| C/C(=N\Nc1nc2ccccc2o1)c1ccc2ccccc2n1 | 5490 nM | 5500 nM | – | – |
| c1ccc(C/C(=N\Nc2nc3ccccc3o2)c2ccccn2)cc1 | > 10000 nM | – | – | – |
